IC50 data for nine compounds are collected here from patent US8846687B2, “Pyrazine compounds as PI3 kinase inhibitors” (Novartis AG, priority 2008, dated 2014).

This assay has as its target recombinant GST-p110γ (human PI 3-Kγ) (Homo sapiens, UniProt P48736). Put plainly: PI 3-kinase gamma in vitro kinase assay (Scintillation Proximity Assay). (SPA uses beads or plates that emit light when radiolabelled molecules are held near them.)

Sequence of recombinant GST-p110γ (human PI 3-Kγ) (P48736 38-1102): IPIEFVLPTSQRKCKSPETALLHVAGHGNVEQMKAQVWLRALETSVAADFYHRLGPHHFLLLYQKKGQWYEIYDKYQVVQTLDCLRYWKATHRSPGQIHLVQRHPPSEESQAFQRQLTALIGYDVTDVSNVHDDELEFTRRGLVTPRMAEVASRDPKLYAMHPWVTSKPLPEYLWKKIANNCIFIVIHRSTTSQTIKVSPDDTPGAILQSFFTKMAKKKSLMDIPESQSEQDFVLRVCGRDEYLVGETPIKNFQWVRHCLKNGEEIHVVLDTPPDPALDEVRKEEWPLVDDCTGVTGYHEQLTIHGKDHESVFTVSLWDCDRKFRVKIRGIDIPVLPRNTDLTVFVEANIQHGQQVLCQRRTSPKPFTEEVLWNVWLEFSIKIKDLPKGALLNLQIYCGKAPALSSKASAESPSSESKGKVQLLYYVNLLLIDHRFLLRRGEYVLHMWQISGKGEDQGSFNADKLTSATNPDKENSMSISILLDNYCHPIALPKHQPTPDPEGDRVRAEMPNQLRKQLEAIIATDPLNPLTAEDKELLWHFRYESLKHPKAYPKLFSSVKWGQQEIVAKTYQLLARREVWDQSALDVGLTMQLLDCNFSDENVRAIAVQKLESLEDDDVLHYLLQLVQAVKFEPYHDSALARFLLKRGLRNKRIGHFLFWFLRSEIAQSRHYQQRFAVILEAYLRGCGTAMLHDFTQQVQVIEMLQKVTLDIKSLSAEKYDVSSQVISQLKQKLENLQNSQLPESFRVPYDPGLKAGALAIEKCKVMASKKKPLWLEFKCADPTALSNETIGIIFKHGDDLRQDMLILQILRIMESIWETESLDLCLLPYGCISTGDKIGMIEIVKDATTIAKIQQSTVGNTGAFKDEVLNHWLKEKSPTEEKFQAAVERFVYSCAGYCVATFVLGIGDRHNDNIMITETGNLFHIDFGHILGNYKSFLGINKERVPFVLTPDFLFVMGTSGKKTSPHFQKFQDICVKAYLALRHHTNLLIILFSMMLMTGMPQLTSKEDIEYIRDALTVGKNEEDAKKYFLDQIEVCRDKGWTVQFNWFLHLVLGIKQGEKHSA
Method: To express the recombinant protein, Sf9 (Spodoptera frugiperda 9) insect cells are routinely maintained at densities between 3×10^5 and 3×10^6 cells/ml in serum containing TNMFH medium (Sigma). Sf9 cells, at a density of 2×10^6 are infected with human GST-PI 3-KγΔ34 baculovirus at a multiplicity of infection (m.o.i.) of 1 for 72 hours. The infected cells are harvested by centrifugation at 1400 g for 4 minutes at 4° C. and the cell pellets are frozen at −80° C. […] Sf9 cells (1×10^9) are resuspended in 100 ml cold (4° C.) lysis buffer (50 mM Tris-HCl pH 7.5, 1% Triton X-100, 150 mM NaCl, 1 mM NaF, 2 mM DTT and protease inhibitors. Cells are incubated on ice for 30 minutes then centrifuged at 15000 g for 20 minutes at 4° C. Purification of the supernatant sample is carried out at 4° C. by affinity chromatography using SEPHAROSE™ agarose gel beads coupled to glutathione (from Amersham Pharmacia Biotech). A cell lysate/GST resin ratio of 50:1 is used. The GST resin is firstly pre-rinsed to remove ethanol preservative and then equilibrated with lysis buffer. Cell lysate (supernatant) is added (usually as 50 ml lysate to 1 ml GST resin in 50 ml tubes) and gently rotated on a mixer at 4° C. for 2-3 hours. The unbound flow through sample is collected by centrifugation at 1000 g for 5 minutes at 4° C. using a DENLEY™ centrifuge. The 1 ml GST resin containing bound material is transferred to a 15 ml FALCON™ centrifuge tube for subsequent washing and elution steps. Firstly a series of 3 cycles of washings (mixing by gentle inversion) is performed with 15 ml ice cold wash Buffer A (50 mM Tris-HCl pH 7.5, 1% Triton X-100, 2 mM DTT) interspersed with centrifugation at 1000 g for 5 minutes at 4° C. A final single wash step is performed with 15 ml ice cold wash Buffer B (50 mM Tris-HCl pH 7.5, 2 mM DTT) and then centrifuged at 1000 g for 5 minutes at 4° C. The washed GST resin is finally eluted with 4 cycles of 1 ml ice cold elution buffer (50 mM Tris-HCl pH 7.5, 10 mM reduced glutathione, 2 mM DTT, 150 mM NaCl, 1 mM NaF, 50% ethylene glycol and protease inhibitors) interspersed with centrifugation at 1000 g for 5 minutes at 4° C. Samples are aliquoted and stored at −20° C.
An in vitro kinase assay was established that measures the transfer of the terminal phosphate of adenosine triphosphate to phosphatidylinositol. The kinase reaction is performed in a white 96 well microtitre plate as a Scintillation Proximity Assay. Each well contains 10 μl test compound in 5% dimethylsulfoxide and 20 μl assay mix (40 mM Tris, 200 mM NaCl, 2 mM ethyleneglycol-aminoethyl-tetraacetic acid (EGTA), 15 μg/ml phosphatidylinositol, 12.5 μM adenosine triphosphate (ATP), 25 mM MgCl2, 0.1 μCi [^33P]ATP). The reaction is started by the addition of 20 μl of enzyme mix (40 mM Tris, 200 mM NaCl, 2 mM EGTA containing recombinant GST-p110γ).

What is called IC50 is the concentration needed to halve the response being measured. On to `Nc1ncc(-c2cnc(N)c(C(=O)c3cccnc3)n2)cc1C(F)(F)F` [Example 1, [3-Amino-6-(6-amino-5-trifluoromethyl-pyridin-3-yl)-pyrazin-2-yl]-pyridiny-3-yl-methanone], for which the IC50 is 33 nM.

In the case of `Nc1ncc(-c2cc(S(=O)(=O)N3CCOCC3)c(F)cc2F)nc1C(=O)c1cccnc1` [Example 74, {3-Amino-6-[2,4-difluoro-5-(morpholine-4-sulfonyl)-phenyl]-pyrazin-2-yl}-pyridin-3-yl-methanone], the IC50 came out at 125 nM.

Consider `Nc1ncc(-c2ccc(Cl)c(Cl)c2)nc1C(=O)c1ccc(CN2CCCCC2)cc1` [Example 86, [3-Amino-6-(3,4-dichloro-phenyl)-pyrazin-2-yl]-(4-piperidin-1-ylmethyl-phenyl)-methanone], for which the IC50 was determined as 753 nM.

Take `Nc1ncc(-c2cc(C(F)(F)F)cc(S(N)(=O)=O)c2)nc1C(=O)c1cccnc1` [Example 67, 3-[5-Amino-6-(pyridine-3-carbonyl)-pyrazin-2-yl]-5-trifluoromethyl-benzenesulfonamide]: the IC50 was found to be 431 nM.

In the case of `Nc1ncc(-c2cccc(C(=O)O)c2)nc1C(=O)c1cccnc1` [Example 49, 3-[5-Amino-6-(pyridine-3-carbonyl)-pyrazin-2-yl]-benzoic acid], the concentration for half-maximal inhibition (IC50) stood at 362 nM.

As for `Nc1ncc(-c2ccc(Cl)c(S(=O)(=O)Nc3ccccc3)c2)nc1C(=O)c1cccnc1` [Example 13, 5-[5-Smino-6-(pyridine-3-carbonyl)-pyrazin-2-yl]-2-chloro-N-phenyl-benzenesulfonamide], the IC50 is 12 nM.

Consider `Nc1ncc(-c2ccc3c(c2)OCO3)nc1C(=O)c1cccnc1` [Example 35, (3-Amino-6-benzo[1,3]dioxol-5-yl-pyrazin-2-yl)-pyridin-3-yl-methanone], for which the IC50 was 587 nM.

Consider `Nc1cccc(-c2cnc(N)c(C(=O)c3cccnc3)n2)c1` [Example 51, [3-Amino-6-(3-amino-phenyl)-pyrazin-2-yl]-pyridin-3-yl-methanone], for which the IC50 worked out at 393 nM.

In the case of `Nc1ncc(-c2cncc(C(=O)N3CCOCC3)c2)nc1C(=O)c1cccnc1` [Example 28], the IC50 is 373 nM.
